The target of the test is T1, 293T-Dual hSTING-R232 cells (Homo sapiens, UniProt Q86WV6, H232R).
T1 construct: host or cells: 293T-Dual hSTING-R232 cells (HEK 293T)
Briefly: 293T R232 cell reporter assay (HEK 293T reporter assay). In kind it is cell-based. Conditions: digitonin 10 μg/mL, 30 min exposure, 20 h incubation. How it is done: 293T-Dual hSTING-R232 cells (Invivogen) were plated in 96 well plates at a density of 5×10^4 cells per well in DMEM supplemented with 10% FBS, 1% Pen-Strep, 1% non-essential amino acids, 1% glutamine, and 1% HEPES. Assay setup took place after allowing cells to adhere for 48 h. Compounds dissolved in water were serially diluted in dosing buffer containing 10 μg/mL digitonin. Media was aspirated from the cells, and 50 μL buffer with compound was added in triplicate. After 30 min at 37° C., buffer was aspirated and replaced with 100 μL media. Cells were incubated for 20 h at 37° C., 5% CO2. IFN-beta expression and activation of the interferon regulatory factor (IRF) were measured based on luciferase and alkaline phosphatase reporter activity, respectively. Cell viability was determined in parallel.

[1] abbreviates: EC50 [μM] IRF reporter, alkaline phosphatase reporter.
The mark [2] stands for this setting: EC50 [μM] IRN-β reporter, luciferase reporter.
Setting [3] is: alkaline phosphatase reporter, read-out: EC50 [μM] IRF reporter.
Setting [4] is: luciferase reporter, read-out: EC50 [μM] IRN-β reporter.

Structures are written as SMILES. Where two headings read alike, the source gives them in different places. Bounds are passed on as bounds.

T1 sequence (Q86WV6 whole entry H232R): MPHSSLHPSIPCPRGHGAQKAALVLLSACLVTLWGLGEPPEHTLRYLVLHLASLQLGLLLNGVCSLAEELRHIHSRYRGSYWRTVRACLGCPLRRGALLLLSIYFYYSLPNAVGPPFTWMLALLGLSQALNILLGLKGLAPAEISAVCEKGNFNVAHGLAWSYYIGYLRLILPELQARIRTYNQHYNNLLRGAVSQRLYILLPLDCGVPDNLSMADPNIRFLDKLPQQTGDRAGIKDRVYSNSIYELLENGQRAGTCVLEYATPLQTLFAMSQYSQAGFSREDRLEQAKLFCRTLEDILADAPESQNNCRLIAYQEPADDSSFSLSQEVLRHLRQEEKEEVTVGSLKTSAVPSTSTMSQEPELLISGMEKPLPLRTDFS

Regarding `Nc1nc2c(nnn2[C@@H]2O[C@@H]3CO[P@@](=O)([S][Na])O[C@H]4[C@@H](O)[C@H](n5cnc6c(N)ncnc65)[C@H]5C[C@@]54COP(=O)(O)O[C@@H]2[C@@H]3O)c(=O)[nH]1` [Compound 1-34b], the half-maximal effective concentration (EC50) was 0.25 to 100 µM under setting [1] and 0.25 to 100 µM under setting [2].
Take `Nc1ncnc2c1ncn2C1OC2COP(=O)(S)OC3C(O)C(n4cnc5c(N)ncnc54)C4CC43COP(=O)(S)OC1C2O` (single isomer, unassigned) [Compound 1-14b]: the concentration giving a half-maximal response (EC50) by setting is: under setting [3], 0.25 to 100 µM; under setting [4], more than 100 µM.
For the compound `Nc1nc2c(ncn2[C@H]2[C@H](O)[C@@H]3OP(=O)(O)OC[C@H]4C[C@@H](n5cnc6c(N)ncnc65)[C@H](O)[C@@H]4OP(=O)(O)OC[C@@]34C[C@H]24)c(=O)[nH]1` [Compound 1-23], the concentration for a half-maximal effect (EC50) under setting [3] was 0.25 to 100 µM and the concentration giving a half-maximal response (EC50) under setting [4] fell in the range of 0.25 to 100 µM.
Consider `COC1C2COP(=O)(O)OC3C(COP(=O)(O)OC1C(c1scc4c(=O)[nH]c(N)nc14)O2)OC(n1cnc2c(N)ncnc21)C3F` (stereo not drawn) [Compound 1-5], for which the EC50 runs as follows: under setting [3], less than 0.25 µM; under setting [4], less than 0.25 µM.
Regarding `Nc1nc2c(ncn2C2OC34COC2C3OP(=O)(O)OCC2OC(c3snc5c(N)ncnc35)CC2OP(=O)(O)OC4)c(=O)[nH]1` (stereo not drawn) [Compound 1-52], the EC50 under setting [3] was less than 0.25 µM and the EC50 under setting [4] is 0.25 to 100 µM.
In the case of `Nc1nc2c(ncn2C2SC3COP(=O)(S)OC4C(O)C(n5cnc6c(N)ncnc65)C5CC54COP(=O)(O)OC2C3O)c(=O)[nH]1` (single isomer, unassigned) [Compound 1-30a], the concentration giving a half-maximal response (EC50) by setting is: under setting [3], 0.25 to 100 µM; under setting [4], 0.25 to 100 µM.
As to `Nc1ncnc2c1ncn2C1OC2COP(=O)(S)OC3C(O)C(n4cnc5c(N)ncnc54)C4CC43COP(=O)(S)OC1C2O` (single isomer, unassigned) [Compound 1-14a], the concentration giving a half-maximal response (EC50) under setting [3] lay in the range of 0.25 to 100 µM and the EC50 under setting [4] is more than 100 µM.
Turning to `Nc1nc2c(ncn2[C@H]2[C@@H]3OP(=O)(O)OC[C@H]4O[C@@H](n5cnc6c(N)ncnc65)[C@H](F)[C@@H]4OP(=O)(O)OC[C@]4(C[C@H]24)[C@H]3O)c(=O)[nH]1` [Compound 1-8], the EC50 is, setting by setting: under setting [3], 0.25 to 100 µM; under setting [4], 0.25 to 100 µM.
`Nc1nc2c(ncn2[C@H]2[C@H](O)[C@@H]3OP(=O)(O)OC[C@]45C[C@@H]4[C@@H](n4cnc6c(N)ncnc64)[C@H](O)[C@@H]5O[P@@](=O)([S][Na])OC[C@@]34C[C@H]24)c(=O)[nH]1` [Compound 1-38b]: the EC50 is more than 100 µM under setting [1] and more than 100 µM under setting [2].
With `Nc1ncnc2c1ncn2[C@H]1[C@H](O)[C@@H]2O[P@](=O)([S][Na])OC[C@H]3O[C@@H](n4cnc5c(=O)[nH]cnc54)[C@H](F)[C@@H]3OP(=O)(O)OC[C@@]23C[C@H]13` [Compound 1-20a], the EC50 was 0.25 to 100 µM under setting [1] and 0.25 to 100 µM under setting [2].
For the compound `Nc1nc2c(ncn2C2OC34COP(=O)(O)OC5C6OCC5(COP(=O)(O)OC2C3C4)OC6n2cnc3c(N)ncnc32)c(=O)[nH]1` (stereo not drawn) [Compound 1-27], the concentration giving a half-maximal response (EC50) is less than 0.25 µM under setting [3] and less than 0.25 µM under setting [4].
As to `CO[C@H]1[C@H]2OP(=O)(O)OC[C@@H]3[C@@H](OP(=O)(O)OC[C@H]1O[C@H]2n1cnc2c(=O)[nH]c(N)nc21)[C@@H](O)[C@]1(n2cnc4c(N)ncnc42)C[C@@H]31` [Compound 1-7], the concentration for a half-maximal effect (EC50) is, setting by setting: under setting [3], less than 0.25 µM; under setting [4], less than 0.25 µM.
In the case of `Nc1nc2c(ncn2[C@@H]2O[C@@H]3COP(=O)(O)O[C@@H]4[C@@H](COP(=O)(O)O[C@H]3[C@H]2O)[C@@H]2C[C@@]2(n2cnc3c(N)ncnc32)[C@@H]4O)c(=O)[nH]1` [Compound 1-17], the EC50 was less than 0.25 µM under setting [3] and less than 0.25 µM under setting [4].
With `CO[C@H]1[C@H]2OP(=O)(O)OC[C@]34C[C@@H]3[C@@H](n3cnc5c(N)ncnc53)[C@H](O)[C@@H]4OP(=O)(O)OC[C@H]1O[C@H]2c1scc2c(=O)[nH]c(N)nc12` [Compound 1-12], the concentration for a half-maximal effect (EC50) runs as follows: under setting [3], more than 100 µM; under setting [4], more than 100 µM.
For `COC1C2COP(=O)(S)OC3C(COP(=O)(S)OC1C(c1snc4c(=O)[nH]c(N)nc14)O2)OC(n1cnc2c(N)ncnc21)C3F` (stereo not drawn) [Compound 1-48d], the EC50 under setting [3] is less than 0.25 µM.
Take `Nc1nc2c(ncn2[C@@H]2O[C@@H]3CO[P@@](=O)([S][Na])O[C@H]4[C@@H](O)[C@H](n5cnc6c(N)ncnc65)[C@H]5C[C@]54COP(=O)(O)O[C@@H]2[C@@H]3F)c(=O)[nH]1` [Compound 1-22a]: the EC50 lay within 0.25 to 100 µM under setting [1] and 0.25 to 100 µM under setting [2].
On to `Nc1nc2c(ncn2[C@H]2[C@H](O)[C@@H]3OP(=O)(O)OC[C@]45C[C@@H]4[C@@H](n4cnc6c(N)ncnc64)[C@H](O)[C@@H]5O[P@](=O)([S][Na])OC[C@@]34C[C@H]24)c(=O)[nH]1` [Compound 1-38a], for which the EC50 runs as follows: under setting [1], more than 100 µM; under setting [2], more than 100 µM.
For `CO[C@H]1[C@H]2OP(=O)(O)OC[C@]34C[C@@H]3[C@@H](n3cnc5c(N)ncnc53)[C@H](O)[C@@H]4O[P@@](=O)(S)OC[C@H]1O[C@H]2n1nnc2c(=O)[nH]c(N)nc21` [Compound 1-35b], the EC50 reads like this: under setting [3], less than 0.25 µM; under setting [4], 0.25 to 100 µM.
Regarding `Nc1nc2c(ncn2C2SC3COP(=O)(S)OC4C(O)C(n5cnc6c(N)ncnc65)C5CC54COP(=O)(O)OC2C3O)c(=O)[nH]1` (single isomer, unassigned) [Compound 1-30b], the 50% effective concentration (EC50) is more than 100 µM under setting [3] and more than 100 µM under setting [4].
As to `COC1C2COP(=O)(S)OC3C(O)C(n4cnc5c(N)ncnc54)C4CC43COP(=O)(S)OC1C(n1cnc3c(=O)[nH]c(N)nc31)O2` (single isomer, unassigned) [Compound 1-6b], the EC50 under setting [3] lay within 0.25 to 100 µM.
On to `CO[C@H]1[C@H]2OP(=O)(O)OC[C@]34C[C@@H]3[C@@H](n3cnc5c(N)ncnc53)[C@H](O)[C@@H]4O[P@](=O)([S][Na])OC[C@H]1O[C@H]2n1cnc2c(=O)[nH]c(N)nc21` [Compound 1-10a], for which the concentration for a half-maximal effect (EC50) was in the range of 0.25 to 100 µM under setting [1] and 0.25 to 100 µM under setting [2].
As for `Nc1nc2c(ncn2[C@H]2[C@H](O)[C@@H]3OP(=O)(O)OC[C@H]4O[C@@H](n5cnc6c(N)ncnc65)[C@H](F)[C@@H]4O[P@](=O)([S][Na])OC[C@@]34C[C@H]24)c(=O)[nH]1` [Compound 1-19a], the EC50 under setting [1] was in the range of 0.25 to 100 µM and the EC50 under setting [2] lay in the range of 0.25 to 100 µM.
Turning to `COC1C2COP(=O)(S)OC3C(COP(=O)(O)OC1C(n1cnc4c(=O)[nH]c(N)nc41)O2)C1CC1(n1cnc2c(N)ncnc21)C3O` (stereo not drawn) [Compound 1-16a], the 50% effective concentration (EC50) reads like this: under setting [3], 0.25 to 100 µM; under setting [4], 0.25 to 100 µM.
With `Nc1nc2c(ncn2[C@H]2[C@H](O)[C@@H]3OP(=O)(O)OC[C@H]4O[C@@H](n5cnc6c(N)ncnc65)[C@H](F)[C@@H]4OP(=O)(O)OC[C@@]34C[C@H]24)c(=O)[nH]1` [Compound 1-9], the concentration for a half-maximal effect (EC50) was less than 0.25 µM under setting [3] and less than 0.25 µM under setting [4].
As for `COC1C2COP(=O)(O)OC3CC(c4snc5c(N)ncnc45)OC3COP(=O)(O)OC1C(n1cnc3c(=O)[nH]c(N)nc31)O2` (stereo not drawn) [Compound 1-25], the concentration for a half-maximal effect (EC50) reads like this: under setting [3], less than 0.25 µM; under setting [4], less than 0.25 µM.
Take `CO[C@H]1[C@H]2OP(=O)(O)OC[C@@]34C[C@@H]3[C@@H](n3ccc5c(N)ncnc53)[C@H](O)[C@@H]4OP(=O)(O)OC[C@H]1O[C@H]2n1cnc2c(=O)[nH]c(N)nc21` [Compound 1-4]: the concentration giving a half-maximal response (EC50) is less than 0.25 µM under setting [3] and less than 0.25 µM under setting [4].
As to `COC1C2COP(=O)(S)OC3C(COP(=O)(S)OC1C(c1snc4c(=O)[nH]c(N)nc14)O2)OC(n1cnc2c(N)ncnc21)C3F` (stereo not drawn) [Compound 1-48c], the concentration giving a half-maximal response (EC50) under setting [3] was less than 0.25 µM and the concentration for a half-maximal effect (EC50) under setting [4] lay in the range of 0.25 to 100 µM.
The like results for `Nc1nc2c(ncn2[C@@]23C[C@H]2[C@@H]2COP(=O)(O)O[C@H]4[C@@H](F)[C@H](n5cnc6c(N)ncnc65)O[C@@H]4COP(=O)(O)O[C@@H]3[C@@H]2O)c(=O)[nH]1` [Compound 1-24] were, in that order, 0.25 to 100 µM and more than 100 µM.
Consider `Nc1nc2c(ncn2[C@H]2[C@@H]3OP(=O)(O)OC[C@]45C[C@@H]4[C@@H](n4cnc6c(N)ncnc64)[C@H](O)[C@@H]5O[P@](=O)([S][Na])OC[C@@]4(C[C@H]24)[C@H]3O)c(=O)[nH]1` [Compound 1-37], for which the EC50 runs as follows: under setting [1], 0.25 to 100 µM; under setting [2], more than 100 µM.
As to `CO[C@H]1[C@H]2OP(=O)(O)OC[C@@]34C[C@@H]3[C@@H](n3cnc5c(N)ncnc53)[C@H](OP(=O)(O)OC[C@H]1O[C@H]2n1cnc2c(=O)[nH]c(N)nc21)[C@@H]4O` [Compound 1-3], the 50% effective concentration (EC50) is 0.25 to 100 µM under setting [3] and more than 100 µM under setting [4].
With `COC1C2COP(=O)(S)OC3C(COP(=O)(S)OC1C(c1snc4c(=O)[nH]c(N)nc14)O2)OC(n1cnc2c(N)ncnc21)C3F` (single isomer, unassigned) [Compound 1-48b], the EC50 reads like this: under setting [3], less than 0.25 µM; under setting [4], less than 0.25 µM.
As to `COC1C2COP(=O)(S)OC3C(COP(=O)(S)OC1C(c1snc4c(=O)[nH]c(N)nc14)O2)OC(n1cnc2c(N)ncnc21)C3F` (single isomer, unassigned) [Compound 1-48a], the EC50 runs as follows: under setting [3], 0.25 to 100 µM; under setting [4], 0.25 to 100 µM.
In the case of `COC1C2COP(=O)(S)OC3C(O)C(n4cnc5c(N)ncnc54)C4CC43COP(=O)(S)OC1C(n1cnc3c(=O)[nH]c(N)nc31)O2` (single isomer, unassigned) [Compound 1-6a], the EC50 reads like this: under setting [3], 0.25 to 100 µM; under setting [4], 0.25 to 100 µM.
On to `CO[C@H]1[C@H]2OP(=O)(O)OC[C@@]34CO[C@@H]([C@H](n5cnc6c(N)ncnc65)O3)[C@@H]4OP(=O)(O)OC[C@H]1O[C@H]2c1snc2c(=O)[nH]c(N)nc12` [Compound 1-49], for which the concentration giving a half-maximal response (EC50) is less than 0.25 µM under setting [3] and 0.25 to 100 µM under setting [4].
